Where two headings read alike, the source gives them in different places.
Columns and labels:
[1] = tested on: HeLa cells; assay: MTT cell viability assay (photocytotoxicity), HeLa; type: cell-based, human; conditions: for PI (Phototoxic Index) HeLa: ratio between IC50 in the dark and visible light exposure
Procedure: (§1) The photocytotoxicity of the complexes was assessed using MTT assay based on the ability of mitochondrial dehydrogenases in the viable cells to cleave the tetrazolium rings of MTT and forming dark blue membrane impermeable crystals of formazan that were measured at 570 nm giving an estimate of the number of viable cells.[40] Approximately, 1 × 10^4 cells of HeLa and A549 were plated in a 96-well culture plate in DMEM supplemented with 10% fetal bovine serum and cultured overnight. Different concentrations of the complexes were added to the cells, and incubation was continued for 4 h in dark. After incubation, the medium was replaced with 50 mM phosphate buffer, pH 7.4, containing 150 mM NaCl (PBS) and photo-irradiation was done for 1 h in visible light of 400–700 nm using Luzchem Photoreactor (Model LZC-1, Ontario, Canada; light fluence rate: 2.4 mW cm^−2; light dose = 10 J cm^−2). PBS was replaced with 10% DMEM after irradiation. Incubation was continued for a further period of 19 h in dark for light exposed cells and for 20 h in dark for light unexposed cells followed by addition of 25 μL of 4 mg mL^−1 of MTT to each well and incubated for an additional 3 h. The culture medium was discarded, and a 100 μL volume of DMSO was added to dissolve the formazan crystals. The absorbance at 570 nm was determined using an ELISA microplate reader (BioRad, Hercules, CA, USA). The cytotoxicity of the test compounds was measured as the percentage ratio of the absorbance of the treated cells over the untreated controls. The IC50 values were determined by nonlinear regression analysis (Graphpad Prism, version 7).

[2] = tested on: A549 cells; assay: MTT cell viability assay (photocytotoxicity), A549; type: cell-based, human; conditions: for PI (Phototoxic Index) A549: ratio between IC50 in the dark and visible light exposure
Procedure: as §1

[3] = Partition coefficient n-octanol/water, modified shake-flask method; type: physicochemical; conditions: average of three concentrations
Procedure: A modified shake-flask method was used to determine the partition coefficients of the complexes 1–6 between n-octanol and water.[41] Briefly, 5 ml solution of a complex in octanol-saturated water was shaken with 5 ml of water-saturated n-octanol in a falcon tube for ∼30 min using a vortex. The biphasic mixture was centrifuged for ∼5 min at 4000 rpm and the layers were separated. The concentration of the complexes 1–6 in each layer was measured by UV-visible spectroscopy. The partition coefficients of 1–6 were determined at three different concentrations and averaged out.

[4] = tested on: HeLa cells; assay: Annexin-V/FITC/PI assay by flow cytometry; type: cell-based, human; conditions: 5 μM
Procedure: The mechanism of light-assisted cell death induced by the complexes was studied by annexin-V/FITC/PI assay using complexes 1 and 3 in 1% DMSO/DMEM.[44] ∼4 × 10^5 HeLa cells seeded in six-well plates were cultured for 24 h. The cells were then incubated with 3 (5 μM) for 4 h in the dark and then exposed to visible light (λ = 400–700 nm, light dose = 10 J cm^−2) in phenol red free media for 1 h. The corresponding dark control experiment was carried out. Cells were incubated for another 19 h and 20 h respectively for the light exposed and unexposed plates in DMEM/10% fetal bovine serum (FBS) buffer in the dark. The medium was discarded, cells were trypsinized and re-suspended in 140 μL Annexin V binding buffer (100 mM HEPES/NaOH, pH 7.4 containing 140 mM NaCl and 2.5 mM CaCl2). Annexin-V/FITC ([…]) and propidium iodide (PI; […]) were added to the cell suspensions, incubated for 5 min and readings were taken using a flow cytometer.

[5] = molecular target: T1, human serum albumin (HSA) (Homo sapiens, UniProt P02768); assay: Protein binding by tryptophan fluorescence quenching; conditions: fluorescence lifetime of HSA with 10 and 20 μM complex
T1 construct: purchased Sigma (U.S.A.)
Procedure: The protein binding study was carried out by tryptophan fluorescence quenching experiments using human serum albumin (HSA, 2 μM) in Tris–HCl buffer (pH 7.2). Quenching of the emission intensity of tryptophan residue (Trp 214) of HSA at 320 nm (excitation wavelength at 280 nm) was monitored using complexes 1–6 as quenchers with increasing concentration.[38]I0/I vs. [complex] plots were constructed. Linear fit of the data using the equation I0/I = 1 + K[Q], where I0 and I are the emission intensity of HSA in the absence of quencher and emission intensity of HSA in the presence of the quencher of concentration [Q] gave the binding constant KHSA values using OriginPro 8. […] Average fluorescence lifetime of pure HSA (2 μM) was measured and compared with its fluorescence lifetime in presence of two different concentrations (10 and 20 μM) of complex 3 using a time-resolved fluorimeter.[39]

[6] = tested on: HeLa cells; assay: Cellular uptake by flow cytometry; type: cell-based, human; conditions: 10 μM, 4 h in dark, fluorescence vs cells' auto fluorescence
Procedure: Uptake of the complexes 1–3 in HeLa cells were studied by flow cytometric method reported in literature.[42] HeLa cells were treated with 1–3 (10 μM) and incubated for 4 h in dark. The cells were harvested by trypsinization and a suspension in PBS was prepared. The uptake of the green fluorescent complexes in HeLa cells were evaluated by flow cytometry.

[7] = tested on: HeLa cells; assay: DCFDA assay for detection of ROS; type: cell-based, human; conditions: 5 μM
Procedure: The generation of cellular reactive oxygen species (ROS) was assessed using DCFDA assay.[43] Approximately ∼1 × 10^6 HeLa cells were incubated with complex 3 (5 μM) for 4 h which is followed by photo-irradiation (400–700 nm) for 1 h in PBS. The cells were then harvested by trypsinization and a single cell suspension in PBS was made. After that the cells were treated with DCFDA solution (10 μM, in DMSO) in dark at room temperature for 5 min. The distribution of DCFDA stained HeLa cells was determined by flow cytometry in the FL-1 channel.

[8] = tested on: HeLa cells; conditions: curcumin, cited from earlier work
[9] = tested on: A549 cells; conditions: curcumin, cited from earlier work
[10] = 4 h treatment followed by 20 h incubation in dark, read-out: IC50 HeLa Dark
[11] = 4 h treatment in dark, visible light (400–700 nm, 10 J cm^−2) 1 h, then 19 h in dark, read-out: IC50 HeLa Light
[12] = 4 h treatment followed by 20 h incubation in dark, read-out: IC50 A549 Dark
[13] = 4 h treatment in dark, visible light (400–700 nm, 10 J cm^−2) 1 h, then 19 h in dark, read-out: IC50 A549 Light
[14] = visible light (400–700 nm, 10 J cm^−2)

T1 sequence (P02768 25-609): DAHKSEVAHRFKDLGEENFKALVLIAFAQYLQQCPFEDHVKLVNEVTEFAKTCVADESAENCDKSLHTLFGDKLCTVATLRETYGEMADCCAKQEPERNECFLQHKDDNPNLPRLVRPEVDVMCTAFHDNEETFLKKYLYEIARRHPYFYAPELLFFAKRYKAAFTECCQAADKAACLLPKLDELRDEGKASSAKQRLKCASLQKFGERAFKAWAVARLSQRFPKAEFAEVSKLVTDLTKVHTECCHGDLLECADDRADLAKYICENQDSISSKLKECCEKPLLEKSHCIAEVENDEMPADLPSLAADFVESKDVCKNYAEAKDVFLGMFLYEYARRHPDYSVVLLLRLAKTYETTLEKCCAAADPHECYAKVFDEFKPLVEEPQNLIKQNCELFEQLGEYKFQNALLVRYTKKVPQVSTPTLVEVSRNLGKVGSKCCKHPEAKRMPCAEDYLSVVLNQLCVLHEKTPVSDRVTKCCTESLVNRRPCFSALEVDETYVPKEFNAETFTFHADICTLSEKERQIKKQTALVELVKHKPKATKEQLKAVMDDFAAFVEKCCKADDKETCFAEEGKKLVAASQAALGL

SMILES	IC50 [1, 10] [µM]	IC50 [1, 11] [µM]	PI (Phototoxic Index) HeLa [1]	IC50 [2, 12] [µM]	IC50 [2, 13] [µM]	PI (Phototoxic Index) A549 [2]	log Po/w [3]	induction of apoptosis (in words) ([4]; visible light (400–700 nm, 10 J cm^−2) vs dark)	HSA fluorescence quenching mechanism [5]	population of cells in early apoptotic stage ([4]; in dark) [%]	population of cells in late apoptotic stage ([4]; in dark) [%]	population of cells in early apoptotic stage [4, 14] [%]	population of cells in late apoptotic stage [4, 14] [%]	uptake in HeLa cells [6]	ROS generation (DCF emission) ([7]; 4 h, photo-irradiation (400–700 nm) 1 h)	ROS generation (DCF emission) ([7]; compound treated cells kept in dark)	IC50 ([8]; read-out: IC50 HeLa Dark) [µM]	IC50 ([8]; read-out: IC50 HeLa Light) [µM]	IC50 ([9]; read-out: IC50 A549 Dark) [µM]	IC50 ([9]; read-out: IC50 A549 Light) [µM]
COc1cc(/C=C/C(=O)C=C([O-])/C=C/c2ccc(O)c(OC)c2)ccc1O.[Cu+2].[O-][Cl+3]([O-])([O-])[O-].c1cnc2c(c1)ccc1cccnc12 [Complex 1, [Cu(Cur)(phen)(ClO4)]]	56.4 ± 3.5	6.8 ± 0.9	8.3	85.3 ± 5.4	8.6 ± 0.8	9.9	−0.525	visible light assisted induction of apoptosis in HeLa cells, however not up to the extent of 3	–	–	–	–	–	–	–	–	–	–	–	–
CC(=O)C=C(C)[O-].[Cu+2].[O-][Cl+3]([O-])([O-])[O-].c1ccc2nc3c4cccnc4c4ncccc4c3nc2c1 [Complex 6]	> 100	36.9 ± 2.8	>2.7	> 100	39.8 ± 3.3	>2.5	–	–	–	–	–	–	–	–	–	–	–	–	–	–
COc1cc(C=CC(=O)C=C([O-])C=Cc2ccc(O)c(OC)c2)ccc1O.[Cu+2].[O-][Cl+3]([O-])([O-])[O-].c1cnc2c(c1)c1nccnc1c1cccnc12 [Complex 2, [Cu(Cur)(dpq)(ClO4)]]	61.9 ± 3.9	4.7 ± 0.8	13.2	65.6 ± 4.4	5.7 ± 0.7	11.5	0.345	–	–	–	–	–	–	–	–	–	–	–	–	–
CC(=O)C=C(C)[O-].[Cu+2].[O-][Cl+3]([O-])([O-])[O-].c1cnc2c(c1)ccc1cccnc12 [Complex 4, [Cu(acac)(phen)(ClO4)]]	> 100	41 ± 3.8	–	> 100	48.8 ± 4.2	–	–	–	–	–	–	–	–	–	–	–	–	–	–	–
COc1cc(/C=C/C(=O)C=C([O-])/C=C/c2ccc(O)c(OC)c2)ccc1O.[Cu+2].[O-][Cl+3]([O-])([O-])[O-].c1ccc2nc3c4cccnc4c4ncccc4c3nc2c1 [Complex 3, [Cu(Cur)(dppz)(ClO4)]]	58.9 ± 3.7	3.7 ± 0.5	15.9	64.9 ± 4.3	4.3 ± 0.4	15.1	0.945	–	static in nature	~4	~8	~50	~15	highest uptake	significant increase in emission by DCF	did not show any significant ROS formation	–	–	–	–
COc1cc(/C=C/C(=O)CC(=O)/C=C/c2ccc(O)c(OC)c2)ccc1O [Curcumin, (1E,6E)-1,7-bis(4-hydroxy-3-methoxyphenyl)-1,6-heptadiene-3,5-dione]	–	–	–	–	–	–	–	–	–	–	–	–	–	–	–	–	85.4 ± 0.6	8.2 ± 0.2	61.4 ± 0.4	19 ± 0.1
CC(=O)C=C(C)[O-].[Cu+2].[O-][Cl+3]([O-])([O-])[O-].c1cnc2c(c1)c1nccnc1c1cccnc12 [Complex 5, [Cu(acac)(dpq)(ClO4)]]	> 100	46.8 ± 3.9	>2.1	> 100	45.1 ± 3.5	>2.2	−0.180	–	–	–	–	–	–	–	–	–	–	–	–	–

Source: article PMC9606729 (RSC Advances, 2022)
